Test results taken from the Deep4Chem optical property database.
Several values for one entry are separate records, joined by “and”; a condition that tells them apart may be missing. Identical values can stand only once.

Assay: photoluminescence quantum yield (fraction); solvent given as SMILES
[1] = in O=P(c1ccccc1)(c1ccccc1)c1ccccc1Oc1ccccc1P(=O)(c1ccccc1)c1ccccc1

## CC(C)(C)c1ccc(N(c2ccc(C(C)(C)C)cc2)c2ccc(S(=O)(=O)c3ccc(N(c4ccc(C(C)(C)C)cc4)c4ccc(C(C)(C)C)cc4)cc3)cc2)cc1
In Cc1ccccc1
  photoluminescence quantum yield: 0.65

## CCCCCCCN1C(=CC2=C([O-])C(=CC3=[N+](CCCCCCC)c4ccccc4C3(C)C)C2=C(C#N)C#N)Sc2ccccc21
In C1COCCO1
  photoluminescence quantum yield: 0.16
In CCO
  photoluminescence quantum yield: 0.15
In CN(C)C=O
  photoluminescence quantum yield: 0.16
In ClC(Cl)Cl
  photoluminescence quantum yield: 0.17

## COc1ccccc1C1=[N+]2C(=Cc3c4cc5ccccc5cc4c(-c4ccccc4OC)n3[B-]2(F)F)c2cc3ccccc3cc21
In C1CCOC1
  photoluminescence quantum yield: 0.29

## c1ccc(-c2nc(-c3ccc(-c4nc(-c5ccccc5)c(-c5ccccc5)[nH]4)s3)[nH]c2-c2ccccc2)cc1
In CC#N
  photoluminescence quantum yield: 0.55

## N#Cc1c(N2CCCCC2)cc(-c2ccc(-c3ccccc3)s2)c2c1CCc1ccccc1-2
In C1CCOC1
  photoluminescence quantum yield: 0.23

## Cc1cc2c(o1)=CC1=C(C(F)(F)F)c3cc4oc(C)cc4n3[B-](F)(F)[N+]=21
In C1CCOC1
  photoluminescence quantum yield: 0.92
In CC#N
  photoluminescence quantum yield: 0.84
In CCO
  photoluminescence quantum yield: 0.87
In CO
  photoluminescence quantum yield: 0.7
In Cc1ccccc1
  photoluminescence quantum yield: 0.97
In ClC(Cl)Cl
  photoluminescence quantum yield: 0.98

## CCCCN1C(=O)c2c(Br)c(Br)c3c4c(Br)c(Br)c5c6c(c(Br)c(Br)c(c7c(Br)c(Br)c(c2c37)C1=O)c64)C(=O)N(CCCC)C5=O
In ClC(Cl)Cl
  photoluminescence quantum yield: 0.01

## O=c1oc2ccccc2cc1/C=C/c1ccccc1
In CC#N
  photoluminescence quantum yield: 0.61

## COc1cccc(-[c+]2c3ccccc3oc3ccccc32)c1
In CC#N
  photoluminescence quantum yield: 0.00066

## COc1ccc(/C=C/C2=CC(/C=C/c3ccc(OC)cc3)=[N+]3C2=C(c2ccc(-c4ccc5ccccc5n4)s2)c2c(/C=C/c4ccc(OC)cc4)cc(/C=C/c4ccc(OC)cc4)n2[B-]3(F)F)cc1
In C1COCCO1
  photoluminescence quantum yield: 0.36

## C(=C1c2ccccc2-c2ccccc21)c1ccc(C=C2c3ccccc3-c3ccccc32)cc1
In C1CCOC1
  photoluminescence quantum yield: 0.0003

## O=c1oc2cc3ccccc3cc2nc1-c1ccccc1
In CC#N
  photoluminescence quantum yield: 0.003
In CCCCCC
  photoluminescence quantum yield: 0.003
In CO
  photoluminescence quantum yield: 0.003
In c1ccccc1
  photoluminescence quantum yield: 0.003 and 0.002

## c1ccc(C2c3ccccc3-c3cc4c(cc32)-c2ccccc2C4c2ccccc2)cc1 (configuration not stated)
In ClCCl
  photoluminescence quantum yield: 0.36

## O=c1c2cc3ccc4cccc5ccc(c2c(=O)n1-c1ccccc1)c3c45
In ClC(Cl)Cl
  photoluminescence quantum yield: 0.5

## Cc1nnc(-c2cc(-c3nnc(C)o3)c(-n3c4ccccc4c4ccccc43)cc2-n2c3ccccc3c3ccccc32)o1
In Cc1ccccc1
  photoluminescence quantum yield: 0.068
[1]
  photoluminescence quantum yield: 0.59

## O=S(=O)([O-])c1ccc([O-])c2ccccc12
In O
  photoluminescence quantum yield: 0.26

## Nc1ccccc1/C=C/C(F)(F)F
In C1CCOC1
  photoluminescence quantum yield: 0.77

## CC(C)(C)c1ccc2oc3nc4oc5ccc(N(c6ccccc6)c6ccccc6)cc5c4cc3c2c1
In ClC(Cl)Cl
  photoluminescence quantum yield: 0.083

## N#Cc1ccc(/C=C2\N=C(c3ccccc3)NC2=O)cc1
In C1COCCO1
  photoluminescence quantum yield: 0.158

## N#Cc1ccc(/C=C/c2c3ccccc3cc3ccccc23)cc1
In CC1CCCCC1
  photoluminescence quantum yield: 0.27
In CC#N
  photoluminescence quantum yield: 0.003
In CO
  photoluminescence quantum yield: 0.029
In Cc1ccccc1
  photoluminescence quantum yield: 0.23
In ClC(Cl)Cl
  photoluminescence quantum yield: 0.05

## Fc1ccccc1-c1c2cc(Cl)ccc2nc2cc3ccccc3cc12
In ClCCl
  photoluminescence quantum yield: 0.46

## CCCCN(CCCC)c1ccc(/C=C/c2ccc3nc(/C=C/c4ccc(N(C)C)cc4)c(-c4ccccc4)nc3c2)cc1
In C1COCCO1
  photoluminescence quantum yield: 0.44
In CC#N
  photoluminescence quantum yield: 0.02
In ClCCl
  photoluminescence quantum yield: 0.24

## CC1=[N+]2C(=C(c3ccc(-c4c5ccccc5c(-c5ccccc5)c5ccccc45)cc3)c3ccc(C)n3[B-]2(F)F)C=C1
In CC#N
  photoluminescence quantum yield: 0.002
In CCCCCC
  photoluminescence quantum yield: 0.204
In CCO
  photoluminescence quantum yield: 0.037
In CN(C)C=O
  photoluminescence quantum yield: 0.002
In Cc1ccccc1
  photoluminescence quantum yield: 0.259
In ClCCl
  photoluminescence quantum yield: 0.027

## CC1=[N+]2C(=C(c3ccccc3)c3c4c(c(C)n3[B-]2(F)F)C2CCC4CC2)C2=C1C1CCC2CC1
In CC#N
  photoluminescence quantum yield: 0.81

## CC(C)(C)c1ccc2c(c1)c1cc(C(C)(C)C)ccc1n2-c1cc[n+]2c(c1)-c1ccccc1O[B-]2(F)F
[1]
  photoluminescence quantum yield: 0.74

## c1cc2ccc3ccc(-n4c5ccccc5c5ccccc54)c4ccc(c1)c2c34
In CCCCCC
  photoluminescence quantum yield: 0.26
In CCO
  photoluminescence quantum yield: 0.38
In CCOC(C)=O
  photoluminescence quantum yield: 0.29
In ClCCl
  photoluminescence quantum yield: 0.44

## C/C=C/c1cccc(OC)c1
In CC#N
  photoluminescence quantum yield: 0.24
In CCCCCC
  photoluminescence quantum yield: 0.31

## Nc1cccc2ccccc12
In C1CCCCC1
  photoluminescence quantum yield: 0.6

## COc1ccc(/C2=C3N=C(C(c4ccccc4)=C/3c3ccccc3)/C(c3ccc(OC)cc3)=c3\[nH]/c(c(-c4ccccc4)c3-c3ccccc3)=C(/c3ccc(OC)cc3)C3=N/C(=C(/c4ccc(OC)cc4)c4[nH]c2c(-c2ccccc2)c4-c2ccccc2)C(c2ccccc2)=C3c2ccccc2)cc1
In ClCCl
  photoluminescence quantum yield: 0.006

## CC(C)(C)Nc1oc(C=Cc2ccccc2)c(C(=O)OC(C)(C)C)c1C(=O)OC(C)(C)C
In CC#N
  photoluminescence quantum yield: 0.311

## Cn1ccc(-n2cncn2)nc1=O
In O
  photoluminescence quantum yield: 0.114

## O=S(=O)(c1cccc(-n2c3ccccc3c3ccccc32)c1)c1cccc(-n2c3ccccc3c3ccccc32)c1
In CCCCC(CC)n1c2ccc(-n3c4ccccc4c4ccccc43)cc2c2cc(-n3c4ccccc4c4ccccc43)ccc21
  photoluminescence quantum yield: 0.109
In c1cc(-n2c3ccccc3c3ccccc32)cc(-n2c3ccccc3c3ccccc32)c1
  photoluminescence quantum yield: 0.218

## c1ccc(N(c2ccccc2)c2ccccc2)cc1
In CCO
  photoluminescence quantum yield: 0.03

## [NH3+]C(Cc1ccc(O)cc1)C(=O)[O-] (configuration not stated)
In O
  photoluminescence quantum yield: 0.13

## CC1=c2cc3c(cc2=[N+]2C1=Cc1c4ccccc4c(C)n1[B-]2(F)F)C1=Cc2c4ccccc4c(C)n2[B-](F)(F)[N+]1=C3C
In ClC(Cl)Cl
  photoluminescence quantum yield: 0.04

## Cc1cc(C)c2nc3[nH]c(=O)[nH]c(=O)c3nc2c1
In CC#N
  photoluminescence quantum yield: 0.043

## Cn1ccc(-c2nc3ccccc3nc2/C=C/N2CCCC2)c1
In C1CCCCC1
  photoluminescence quantum yield: 0.184
In C1CCOC1
  photoluminescence quantum yield: 0.495
In CC#N
  photoluminescence quantum yield: 0.33
In CC(C)=O
  photoluminescence quantum yield: 0.414
In CCO
  photoluminescence quantum yield: 0.022
In CO
  photoluminescence quantum yield: 0.006
In CS(C)=O
  photoluminescence quantum yield: 0.325
In Cc1ccccc1
  photoluminescence quantum yield: 0.469
In ClCCl
  photoluminescence quantum yield: 0.611

## Cc1oc(-c2ccccc2)nc1C(=O)O
In C1CCCCC1
  photoluminescence quantum yield: 0.16
In CC#N
  photoluminescence quantum yield: 0.4
In CCO
  photoluminescence quantum yield: 0.52
In CCOC(C)=O
  photoluminescence quantum yield: 0.5
In O
  photoluminescence quantum yield: 0.51

## CN(C)c1ccc(C2=C3C=C(c4ccc(C=C(C#N)C#N)cc4)S[C@]34c3ccccc3[C@H]2c2ccccc24)cc1
In ClCCl
  photoluminescence quantum yield: 0.01

## C(=C\c1ccncn1)/c1ccc(N(c2ccccc2)c2ccc(/C=C/c3ccncn3)cc2)cc1
In ClCCl
  photoluminescence quantum yield: 0.73

## CCOC(=O)COc1ccc(/C=C/c2c(CC)c(C)c3n2[B-](F)(F)[N+]2=C(c4[nH]c(C)c(CC)c4C)c4ccccc4C2=C3C)cc1
In C1CCOC1
  photoluminescence quantum yield: 0.28
In CC#N
  photoluminescence quantum yield: 0.09
In CCCCCC
  photoluminescence quantum yield: 0.74
In CO
  photoluminescence quantum yield: 0.2
In Cc1ccccc1
  photoluminescence quantum yield: 0.71
In ClCCl
  photoluminescence quantum yield: 0.68

## CCCN1/C(=C\c2c(-c3ccc(N(C)C)cc3)c(=O)c2=O)C=Cc2ccccc21
In C1CCCCC1
  photoluminescence quantum yield: 0.0262
In Cc1ccccc1
  photoluminescence quantum yield: 0.0201
In ClCCl
  photoluminescence quantum yield: 0.001

## C(=C\c1ccncn1)/c1ccc(-c2ccco2)cc1
In ClCCl
  photoluminescence quantum yield: 0.01

## C#CCn1c2ccccc2c2cc(/C=C/c3c(Cl)c(C)c4n3[B-](F)(F)[N+]3=C(C)C(Cl)=C(C)C3=C4c3ccc(I)cc3)ccc21
In CC#N
  photoluminescence quantum yield: 0.43
In CS(C)=O
  photoluminescence quantum yield: 0.33
In ClC(Cl)Cl
  photoluminescence quantum yield: 0.62

## C[Si](C)(C)O[Si]1(O[Si](C)(C)C)n2c3c4ccccc4c2/N=C2N=C(/N=c4/c5ccccc5/c(n41)=N/C1=NC(=N\3)/c3ccccc31)c1ccccc1\2
In CN(C)C=O
  photoluminescence quantum yield: 0.42

## CNc1cccc2c1C(=O)c1ccccc1C2=O
In C1CCC2CCCCC2C1
  photoluminescence quantum yield: 0.014
In C1CCCCC1
  photoluminescence quantum yield: 0.0135
In CC1CCCCC1
  photoluminescence quantum yield: 0.0138
In CC#N
  photoluminescence quantum yield: 0.0026
In CCC(C)CC
  photoluminescence quantum yield: 0.0136
In CCCCCC
  photoluminescence quantum yield: 0.0136
In CCOC(C)=O
  photoluminescence quantum yield: 0.0048

## CC1(C)c2ccccc2N(c2cc3c4ccccc4n4c5ccccc5c(c2)c34)c2ccccc21
[1]
  photoluminescence quantum yield: 0.95

## Cc1cc(=O)oc2cc3c4ccccc4c4ccccc4c3cc12
In CO
  photoluminescence quantum yield: 0.09
In ClC(Cl)Cl
  photoluminescence quantum yield: 0.12

## C[C@]12SC(=O)C=C1c1nc(-c3ccc(O)cc3)[nH]c1C1=CC(=O)S[C@@]12C
In CC#N
  photoluminescence quantum yield: 0.16

## Cn1nc(-c2ccccc2)c2n[nH]nc2c1=O
In CC#N
  photoluminescence quantum yield: 0.34
In CCO
  photoluminescence quantum yield: 0.21
In Cc1ccccc1
  photoluminescence quantum yield: 0.23

## O=S1(=O)C(c2ccsc2)=C(c2ccsc2)c2ccccc21
In C1CCOC1
  photoluminescence quantum yield: 0.005

## c1cc2ccc1-c1ccc(cc1)-c1ccc(s1)-c1ccc(cc1)-c1ccc(cc1)-c1ccc(s1)-c1ccc(cc1)-c1ccc(cc1)-c1ccc(s1)-c1ccc(cc1)-c1ccc(cc1)-c1ccc-2s1
In C1CCOC1
  photoluminescence quantum yield: 0.37

## CC1(C)c2ccccc2N(c2cc[n+]3c(c2)-c2ccccc2O[B-]3(F)F)c2ccccc21
[1]
  photoluminescence quantum yield: 0.65

## O=C1c2ccc3c4c(NC5CCCCC5)cc5c6c(ccc(c7c(NC8CCCCC8)cc(c2c37)C(=O)N1C1CCCCC1)c64)C(=O)N(C1CCCCC1)C5=O
In ClC(Cl)Cl
  photoluminescence quantum yield: 0.008

## C(=C(c1ccccc1)c1ccccc1)c1ccc(-c2cc(-c3ccc(C=C(c4ccccc4)c4ccccc4)cc3)c(-c3ccc(C=C(c4ccccc4)c4ccccc4)cc3)cc2-c2ccc(C=C(c3ccccc3)c3ccccc3)cc2)cc1
In C1CCOC1
  photoluminescence quantum yield: 0.0282

## CCCCCCN1C(=O)c2cccc3c(-c4ccc(-c5cc(-c6ccc(C)cc6)n(-c6ccccc6)n5)s4)ccc(c23)C1=O
In ClCCl
  photoluminescence quantum yield: 0.36

## CC(C)c1cc(C(C)C)c(B2c3cc(-n4c5ccccc5c5ccccc54)ccc3N(c3ccccc3)c3ccc(-n4c5ccccc5c5ccccc54)cc32)c(C(C)C)c1
In c1cc(-c2cccc(-n3c4ccccc4c4ccccc43)c2)cc(-n2c3ccccc3c3ccccc32)c1
  photoluminescence quantum yield: 0.99

## O=[N+]([O-])c1ccc([N+]2=Cc3ccc4c5c(ccc4c3O[B-]2(c2ccccc2)c2ccccc2)C=[N+](c2ccc([N+](=O)[O-])cc2)[B-](c2ccccc2)(c2ccccc2)O5)cc1
In Cc1ccccc1
  photoluminescence quantum yield: 0.63
In ClCCl
  photoluminescence quantum yield: 0.48
